Assay results reported in the OPERA property sets (Mansouri et al. 2018).
Where a SMILES comes first, the peptide text is derived from it. [ ]: non-standard residue; d: D form. The star is where a group is joined. Orn = NCCC[CH](N)C(=O)O; Boc = CC(C)(C)OC(=O)*

`CC(O)COc1ccc(Cl)cc1` (stereo not drawn) gave a logP of 2.41. In the case of `C=CCOC1=NS(=O)(=O)c2ccccc21`, the logP is reported as 1.4. In the case of `C#CCOc1c(Cl)cc(NC=NOCSC)cc1Cl`, the logP is reported as 3.6. Compound `CCCCc1ccc(C(=O)OCCN(C)C)cc1` has a logP of 4.06. For `CCCCNC(=O)C1(O)C(C)CC2C3CCC4=CC(=O)C=CC4(C)C3(F)C(O)CC21C` (stereo not drawn), the logP was 3.1. `CN(C)N=Nc1ccc(S(C)(=O)=O)cc1` gave a logP of 1.59. Work on `NC(CCc1ccccc1)C(=O)O` (stereo not drawn) yielded a logP of -1.2. For `CC(=O)NC(CC(C)C)C(=O)NC(Cc1ccccc1)C(=O)NC(CCCNC(=N)N)C(N)=O` (stereo not drawn) (Ac-Leu-Phe-Arg-NH2; configuration not given here), the logP was -0.12. In the case of `CC(=O)NC(CCCCN)C(=O)NC(Cc1ccccc1)C(N)=O` (stereo not drawn), the logP is reported as 0.12. `Cc1n[nH]c(C(=O)NCc2ccccc2)c1[N+](=O)[O-]` showed a logP of 1.49. `CC12C=CC(=O)C=C1CCC1C2C(O)CC2(C)C1CCC2(O)C(=O)COC1OC(CO)C(OC2OC(CO)C(O)C(O)C2O)C(O)C1O` (stereo not drawn) gave a logP of -0.56. `Clc1ccc(-c2cc(Cl)c(Cl)cc2Cl)c(Cl)c1` showed a logP of 7.21. Work on `Nc1ncc(Cc2cccc(Cl)c2Cl)c(N)n1` yielded a logP of 2.81. Work on `O=C(Cn1ccnc1[N+](=O)[O-])NCCCO` yielded a logP of -1.27. In the case of `CS(=O)(=O)c1ccc2ccccc2c1`, the logP is reported as 1.74. In the case of `COCC(O)Cn1ncc([N+](=O)[O-])n1` (stereo not drawn), the logP is reported as -0.07. `CN(C)c1ccc2c(c1)C(=O)N(OS(C)(=O)=O)C2=O` showed a logP of 1.65. For `CCOC(=O)CCC(C)n1nc2ccccc2n1` (stereo not drawn), the logP was 3.05. Compound `COCCOCC1COC(Cn2cncn2)(c2ccc(Cl)cc2Cl)O1` (stereo not drawn) has a logP of 2.03. For `N#CN=C1NCCN1Cc1cccnc1`, the logP was 0.77. `Clc1ccc(-c2c(Cl)ccc(Cl)c2Cl)c(Cl)c1Cl` gave a logP of 7.04. For `Nc1nc(Cl)c2ncn(C3OC(CO)CC3F)c2n1` (stereo not drawn), the logP was 0.28. `O=c1nc(N=CN2CCCC2)ccn1C1CC(O)C(CO)O1` (stereo not drawn) gave a logP of -1.02. For `C=C1C(=O)OC2CC(C)C3C=CC(=O)C3(C)C(OC(=O)CCCC(=O)OC3C4C(=C)C(=O)OC4CC(C)C4C=CC(=O)C43C)C12` (stereo not drawn), the logP was 1.37. In the case of `CCCCCCOc1ccc(NC(=O)OCCN2CCOCC2)cc1`, the logP is reported as 4.51. Work on `C#CCOc1c(Cl)cc(NC=NOCCCl)cc1Cl` yielded a logP of 3.7. `CN1C(=O)C(=O)C(=O)N(C)C1=O` showed a logP of -0.6. Work on `COCC(O)Cn1c(C)cnc1[N+](=O)[O-]` (stereo not drawn) yielded a logP of 0.03. In the case of `NC(=O)CC(CC(=O)O)c1ccc(Br)cc1` (stereo not drawn), the logP is reported as 1.12. Compound `CC(=O)NC(CC(C)C)C(=O)NC(CCC(=O)O)C(=O)NC(Cc1ccccc1)C(N)=O` (stereo not drawn) (Ac-Leu-Glu-Phe-NH2; configuration not given here) has a logP of 0.47. Work on `CCCCCOc1ccccc1NC(=O)OCCN1CCCCC1` yielded a logP of 4.97. Work on `CCN(CC)C(=O)OCCCc1cccnc1` yielded a logP of 2.36. With `COCc1ccc(O)c2ncccc12` the logP was 1.78. Work on `CC(C)(C)OC(=O)NC(Cc1ccccc1)C(=O)NC(Cc1ccc(O)cc1)C(=O)O` (stereo not drawn) (Boc-Phe-Tyr-OH; configuration not given here) yielded a logP of 2.79. Compound `COc1ccc(Cc2cccc(-c3c(O)c4ccc(Cl)cc4[nH]c3=O)c2)cc1` has a logP of 4.8. `C#CCOc1c(Cl)cc(NC=NOCC=CCl)cc1Cl` gave a logP of 3.9. With `CCCc1ccc(OCC(C)O)c2c(=O)cc(C(=O)O)oc12` (stereo not drawn) the logP was 3. Work on `Clc1cc2c(cc1Cl)Oc1c(cc(Cl)c(Cl)c1Cl)O2` yielded a logP of 6.64. `Sc1nc(-c2ccccc2)ns1` gave a logP of 2.13. Compound `CCn1cc(C(=O)O)c(=O)c2ccc(C)nc21` has a logP of 1.59. For `CNC(=O)OCc1c2c(n3c1C(OC(C)=O)CC3)C(=O)C(C)=C(OC)C2=O` (stereo not drawn), the logP was 2.39. With `C#CCON=CNc1cc(Cl)c(OCC#C)c(Cl)c1` the logP was 3.3. For `OCC1CC(F)C(n2cnc3c(F)ncnc32)O1` (stereo not drawn), the logP was 0.06. Compound `N#CCc1ccc(C(=O)O)cc1` has a logP of 1.18. Compound `COC1CC(OC2CCC3(C=O)C4CCC5(C)C(C6=CC(=O)OC6)CCC5(O)C4CCC3(O)C2)OCC1O` (stereo not drawn) has a logP of 0.64. In the case of `O=[N+]([O-])C=C1NCCN1Cc1ccncc1`, the logP is reported as -1.05. `COc1nc(N(C)C)nc(C(Cl)(Cl)Cl)n1` gave a logP of 3.33. Compound `CCOC(=O)CCC(C)n1nnc2ccccc21` (stereo not drawn) has a logP of 2.64. Work on `Oc1ccc(F)c2cccnc12` yielded a logP of 2.3. With `O=[N+]([O-])c1nccn1CCN1CCCCC1` the logP was 0.36. In the case of `CCc1ccc(OCc2ccccc2CCCN2CCC(O)CC2)cc1`, the logP is reported as 3.75. Compound `C[C@H](O)C(=O)Nc1c(I)c(C(=O)NC(CO)CO)c(I)c(C(=O)NC(CO)CO)c1I` has a logP of -2.42. Compound `Clc1cc2c(c(Cl)c1Cl)Oc1c(Cl)cccc1O2` has a logP of 6.39. Work on `Oc1cccc(Cl)n1` yielded a logP of 0.93. With `O=c1nc(N=CN2CCCC2)ccn1C1OC(CO)C(O)C1O` (stereo not drawn) the logP was -1.15. With `CC(=O)NC(CCCN)C(=O)NC(Cc1ccccc1)C(=O)NC(CC(C)C)C(N)=O` (stereo not drawn) (Ac-[Orn]-Phe-Leu-NH2; configuration not given here) the logP was 0.54. Compound `Clc1ccc(Sc2nc(C(Cl)(Cl)Cl)nc(C(Cl)(Cl)Cl)n2)cc1` has a logP of 6.67. For `CC(C)(C)N(NC(=O)c1ccccc1F)C(=O)c1ccccc1Cl`, the logP was 2.63. In the case of `Cc1ncc([N+](=O)[O-])n1CCSC(=S)N(C)C`, the logP is reported as 1.28. Work on `Cc1nc([N+](=O)[O-])c(Br)n1C` yielded a logP of 0.44. Compound `Clc1ccc(-c2ccc(Cl)c(Cl)c2)c(Cl)c1` has a logP of 6.31. In the case of `CCC1(CCC(C)C)C(=O)NC(=O)N(C)C1=O` (stereo not drawn), the logP is reported as 2.45. Work on `NC(Cc1cccc2ccccc12)C(=O)O` (stereo not drawn) yielded a logP of -0.22. Work on `Cc1nnc[nH]1` yielded a logP of -0.55. For `O=c1[nH]c(Nc2ccccc2)nc2c1ncn2CC(O)CSCCO` (stereo not drawn), the logP was 0.83. For `Clc1cc2oc3c(Cl)cc(Cl)c(Cl)c3c2cc1Cl`, the logP was 6.26. Compound `CC1(CO)COC(Cn2cncn2)(c2ccc(Cl)cc2Cl)OC1` (stereo not drawn) has a logP of 2.1. In the case of `CCCCNC(=O)c1n[nH]c(C)c1[N+](=O)[O-]`, the logP is reported as 1.27. In the case of `OC1CCN(CCCc2ccccc2COc2ccccc2)CC1`, the logP is reported as 3.21. Compound `Cc1cccc(C)c1NC(=O)c1ccc(CN2CCCC2)cc1` has a logP of 3.14. In the case of `Cc1ccc(OCc2ccccc2CCCN2CCC(O)CC2)cc1`, the logP is reported as 3.5. Work on `CCCCCCCC(=O)OC(C(=O)NC1C(=O)N2C(C(=O)O)=C(C)CSC12)c1ccccc1` (stereo not drawn) yielded a logP of 3.54. Work on `Clc1cccc(-c2c(Cl)cc(Cl)c(Cl)c2Cl)c1Cl` yielded a logP of 7.25. With `O=C(O)CCCCCCCc1ccccc1` the logP was 4.09. For `NC(=O)c1cc2ccccc2o1`, the logP was 1.54. Compound `C#CCOc1c(Cl)cc(NC=NOCC(=O)OCC)cc1Cl` has a logP of 3.6. Work on `O=C(O)c1cccc2cccc(C(=O)O)c12` yielded a logP of 1.98. Work on `CNC(=NC#N)NCCCCc1ncccc1OC` yielded a logP of 1.5. `O=C(O)c1c(Br)cccc1Br` showed a logP of 3.58. With `CC(C)N(C=Nc1ccn(C2OC(CO)C(O)C2O)c(=O)n1)C(C)C` (stereo not drawn) the logP was 0.01. `CN(C)CCC[N+]1([O-])c2ccccc2Sc2ccccc21` showed a logP of 1.9. With `CCCCN(C)N=Nc1ccccc1C(N)=O` the logP was 3.52. `CCNC(=O)c1cccc2c1C(=O)C(=O)N(CC)C2=O` gave a logP of 0.3. For `CCNc1nc(SC)nc(C(Cl)(Cl)Cl)n1`, the logP was 3.87. Work on `O=C(O)C(Cc1ccc(F)cc1)n1cccc1` (stereo not drawn) yielded a logP of 2.04. With `c1ccc(Cn2ncnn2)cc1` the logP was 1.03. `CCC(=O)C(CS(=O)(=O)c1ccc(C)cc1)c1ccc(C)cc1` (stereo not drawn) gave a logP of 3.3. `CCCCCCOC(=O)n1cc(F)c(=O)[nH]c1=O` gave a logP of 2.04. In the case of `CC1CC2C3CCC4=CC(=O)C=CC4(C)C3(F)C(O)CC2(C)C1(O)C(=O)NCc1ccccc1` (stereo not drawn), the logP is reported as 3.28. With `Clc1cccc(-c2c(Cl)c(Cl)c(Cl)c(Cl)c2Cl)c1` the logP was 7.3. For `c1ccc(Cn2cccc2)cc1`, the logP was 2.71. Work on `Cc1cc(=O)[nH]c(=O)[nH]1` yielded a logP of -0.77. In the case of `CCNc1nc(NC)nc(SC(F)F)n1`, the logP is reported as 2.68. `CCCn1c(=O)c2[nH]c(-c3ccc(Cl)cc3N)nc2n(CCC)c1=O` showed a logP of 4.02. Work on `CCC1CC(C(=O)NC(C(C)O)C2OC(SC)C(O)C(O)C2O)N(C)C1` (stereo not drawn) yielded a logP of -0.4. For `Fc1ccc(SCc2ccc(CCCN3CCOCC3)cc2)cc1`, the logP was 3.51. For `O=C1NC(=O)C(=O)C(=O)N1`, the logP was -1.84. `COC(=O)n1cnc(CC(NC(=O)C2CCC(=O)N2)C(=O)N2CCCC2C(N)=O)c1` (stereo not drawn) gave a logP of -1.88. `Cc1cc(C)cc(Cl)c1` gave a logP of 3.88. With `C=CCn1cnc2c(=O)[nH]c(Nc3ccccc3)nc21` the logP was 1.75. For `CNC(=O)OCc1ccc(Cl)cc1`, the logP was 2.42. With `CC1(C)CCCC(C)(C)N1[O]` the logP was 1.85. `O=C(CCn1ccnc1[N+](=O)[O-])NCCO` showed a logP of -1.08. Compound `COC(=O)c1ccc(OCC(OC(=O)n2ccnc2)C(C)(C)C)cc1` (stereo not drawn) has a logP of 3.59. With `O=C(O)CCc1cc(=O)c2cc3c(cc2o1)CCCC3` the logP was 2.85. `CC(=O)NC(CC(C)C)C(=O)NC(CCCN)C(=O)NC(Cc1ccccc1)C(N)=O` (stereo not drawn) (Ac-Leu-[Orn]-Phe-NH2; configuration not given here) gave a logP of 0.53. `CNC(=NC#N)NCCSCc1nccs1` gave a logP of 0.89. `CCCCCCOC(=O)Oc1cccc(C2(C(=O)CC)CCN(C)CC2)c1` showed a logP of 3.38. For `CC(C)(C)n1ccnc1C=NO`, the logP was 0.85. For `O=C(Cn1ccnc1[N+](=O)[O-])NCCCCO`, the logP was -0.74. Compound `CCN1C(=O)C(=O)c2ccccc2C1=O` has a logP of 1.13. In the case of `Cc1cc(O)cc(C)c1O`, the logP is reported as 1. With `C#CCOc1c(Cl)cc(NC=NOC)cc1Cl` the logP was 3.3. For `COC1(NC(=O)CSC(F)F)C(=O)N2C(C(=O)OCOC(=O)C(C)(C)C)=C(CSc3nnnn3C)CSC21` (stereo not drawn), the logP was 2.31. With `CC(=O)NC(Cc1ccccc1)C(=O)NC(CCCCN)C(N)=O` (stereo not drawn) the logP was 0.14. `COCCn1cnc2c(=O)[nH]c(Nc3ccccc3)nc21` gave a logP of 1.2. For `Cn1nnnc1SCC1=C(C(=O)OCOC(=O)C(C)(C)C)N2C(=O)C(NC(=O)Cc3csc(N)n3)C2SC1` (stereo not drawn), the logP was 1.36. In the case of `CC12CCC(=O)C=C1CCC1C2CCC2(C)C1CCC21CCC(=O)O1` (stereo not drawn), the logP is reported as 2.98. With `O=C(NCCO)C(F)(F)Cn1cnc([N+](=O)[O-])n1` the logP was -0.77. With `CC(C)(C)NC(=O)C1CN(S(=O)(=O)c2cccc3cccnc23)CCN1CC(O)CC(Cc1ccccc1)C(=O)NC1c2ccccc2CC1O` (stereo not drawn) the logP was 3.7. For `C#CCOc1c(Cl)cc(NC=NOc2ccc(C)cc2)cc1Cl`, the logP was 4.8. Compound `c1ccc(SCc2ccccc2CCCN2CCOCC2)cc1` has a logP of 3.8. Work on `O=C(O)c1cc(Oc2cc(C(F)(F)F)ccc2Cl)ccc1[N+](=O)[O-]` yielded a logP of 3.7. Work on `O=[N+]([O-])C=C1NCCN1Cc1ccccc1` yielded a logP of 0.33. `CCOC(=O)C(C)Oc1ccc(Oc2cnc3cc(C)ccc3n2)cc1` (stereo not drawn) gave a logP of 4.11. `O=C(CCCN1CCC(C(O)(c2ccccc2)c2ccccc2)CC1)c1ccccc1` showed a logP of 4.42. In the case of `CC(C)NC(=O)C1(O)C(C)CC2C3CCC4=CC(=O)C=CC4(C)C3(F)C(O)CC21C` (stereo not drawn), the logP is reported as 2.43. Compound `CC(C)(C)NCC(O)COCCCc1ccccc1` (stereo not drawn) has a logP of 2.58.
